# Measurements from patent US8367659B2, “Oxazinyl isoflavonoid compounds, medicaments and use” (Marshall Edwards, Inc., priority 2007, dated 2013).
# Key:
# [1] = test system: PGE2 synthesis in RAW 264.7 murine macrophages; experiment: LPS-induced PGE2 synthesis in RAW 264.7 murine macrophages; format: cell-based, mouse; conditions: 10 μM; relative to vehicle alone; FIG. 3
# Method: (§1) The mouse macrophage cell line RAW 264.7 was cultured in DMEM supplemented with foetal calf serum (FCS), […] glutamine and 50 U/ml penicillin/streptomycin. Cells were treated with either test compound (in 0.025% DMSO) or vehicle alone, and added one hour before 50 ng/ml LPS. After incubation for 24 h, culture media was collected for PGE2 or TXB2 measurement by ELISA (Cayman Chemical), and TNFα measurement using an ELISA (Becton Dickinson). Test compounds were examined a concentration of 10 μM. […] Consequently, to assess the effect of test compounds on various analytes, cell viability was taken into consideration with the use of the formula: Actual effect of test compound=measured effect−(effect on cell viability×measured effect)
# [2] = test system: TXB2 synthesis in RAW 264.7 murine macrophages; experiment: LPS-induced TXB2 synthesis in RAW 264.7 murine macrophages; format: cell-based, mouse; conditions: 10 μM; relative to vehicle alone; FIG. 4
# Method: as §1
# [3] = test system: NO synthesis in RAW 264.7 murine macrophages; experiment: LPS-induced NO synthesis in RAW 264.7 murine macrophages (Griess); format: cell-based, mouse; conditions: 10 μM; relative to vehicle alone; FIG. 6
# Method: as §1, with “Dickinson). Nitrite concentration is a quantitative indicator of NO production and was determined by the Griess Reaction. Briefly, 100 μL of Griess reagent was added to 50 μL of each supernatant in duplicate. The absorbance at 550 nm was measured (Molecular Devices, SpectraMax 250 microplate spectrophotometer, CA, USA), and nitrite concentrations were determined against a standard curve of sodium nitrite. The percentage nitrite inhibition was calculated as: [100−(nitrite concentration of sample/nitrite of vehicle control LPS cells)×100]. Results” for “Dickinson).”
# [4] = Free radical scavenging with DPPH; conditions: DPPH, 20 minutes, absorbance 517 nm; Table 4; read-out: Free radical scavenging ability EC50
# Method: The antioxidant (free radical trapping) activity of test compounds was assessed using the stable free radical compound 2,2-diphenyl-1-picrylhydrazyl (DPPH). A stock solution of DPPH was prepared at a concentration of […] in ethanol and mixed for 10 minutes prior to use. Test compounds at a concentration of 100 μM were reacted with DPPH for, 20 minutes, alter which time the absorbance at 517 nm was determined. Initial screening of was done at 100 μM. The change in absorbance at 517 nm was compared to a reagent blank (DPPH with ethanol alone). […] The IC50 values were estimated as the concentration of test compound that caused a 0.6 change in absorbance (with 1.2 absorbance units representing total scavenging of the DPPH radical).
# The antioxidant (free radical trapping) activity of test compounds was assessed using the stable free radical compound 2,2-diphenyl-1-picrylhydrazyl (DPPH). A stock solution of DPPH was prepared […] in ethanol and mixed for 10 minutes prior to use. Initial screening of test compound at a concentration of 100 μM was reacted with DPPH for 20 minutes, after which time the absorbance at 517 nm was determined. The change in absorbance was compared to a reagent blank (DPPH with ethanol alone). […] The IC50 value was estimated as the concentration of test compound that causes a 0.6 change in absorbance (with 1.2 absorbance units representing total scavenging of the DPPH radical).
# cancer cell lines = experiment: Anti-cancer activity, cancer cell lines tested as a group (MTT); format: cell-based
# CP70 = experiment: Anti-cancer activity, CP70 ovarian cancer cells (MTT); format: cell-based; conditions: 120 h, 5 days
# MM200 = experiment: Anti-cancer activity, MM200 melanoma cells (MTT); format: cell-based; conditions: 120 h; 5 days, MTT
# HPAC = experiment: Anti-cancer activity, HPAC pancreatic cancer cells (MTT); format: cell-based; conditions: Homo sapiens, 120 h, 5 days
# [5] = target: T1, GAL4-PPARγ fusion protein (Homo sapiens, UniProt P37231); experiment: PPARγ activity in transfected HEK293 cells (beta-lactamase reporter); format: cell-based; conditions: FIG. 13: 1 μM
# T1 construct: host or cells: HEK293 (human embryonic kidney), stably transfected
# T1 sequence (P37231 238-503 limits assumed): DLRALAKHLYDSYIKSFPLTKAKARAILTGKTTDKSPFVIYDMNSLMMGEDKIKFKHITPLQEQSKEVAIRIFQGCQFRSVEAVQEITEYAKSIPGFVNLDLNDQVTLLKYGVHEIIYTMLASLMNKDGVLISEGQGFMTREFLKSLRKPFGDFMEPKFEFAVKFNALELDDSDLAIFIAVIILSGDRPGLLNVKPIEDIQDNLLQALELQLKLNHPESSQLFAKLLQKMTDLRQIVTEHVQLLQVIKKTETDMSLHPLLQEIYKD
# T1 sequence (P04386 1-147 partner limits assumed): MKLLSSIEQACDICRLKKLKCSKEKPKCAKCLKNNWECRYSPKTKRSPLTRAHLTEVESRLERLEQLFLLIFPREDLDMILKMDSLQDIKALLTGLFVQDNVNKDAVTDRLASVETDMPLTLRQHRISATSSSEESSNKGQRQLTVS
# Method: Human HEK293 cells, stably transfected with the PPARγ ligand binding domain fused with the DNA binding domain of the GAL4 protein (GAL4-PPARγ fusion protein), produce beta-lactamase when incubated with PPARγ ligands. Transfected human kidney embryonic cells (Invitrogen Inc., Carlsbad, Calif.) were seeded onto matrigel in 96-well plates and allowed to attach overnight. The following day, vehicle alone (DMSO) or test compound at 1, 5 and 10 μM was added at varying concentrations to cells and incubated for 16-18 hours. Cells were then loaded with a FRET-based fluorescent substrate to assess beta-lactamase activity. Cells were protected from light, and incubated at room temperature for 2 h. Plates were read on a fluorescence plate reader with an excitation wavelength of 409 nm and emission wavelengths of 460 nm and 530 nm. Results were expressed as a ratio of these two wavelengths after the background (cell-free control wells) had been subtracted. PPARγ activity was thus determined by measuring beta-lactamase activity as assessed by a fluorescent product to substrate ratio.
# [6] = test system: human umbilical vein smooth muscle cells (HUVSMC); experiment: Proliferation of human umbilical vein smooth muscle cells (MTT); format: cell-based; conditions: 10 μM; 10% FCS, 5 days; FIG. 8
# Method: The effect of test compounds on human umbilical vein smooth muscle cells (HUVSMC) was examined. Cells were seeded into 96 well plates at a low seeding rate of 1.6×10^3 cells per well, and allowed to attach for 24 hours. The cells were then washed twice with medium without FCS and incubated in medium without FCS for 20 hours to serum starve them. Analogue was prepared in medium without FCS at 20 μM and added to the plates and incubated for one hour. Final analogue concentration was therefore 10 μM. The cells were then stimulated by adding medium +20% FCS, to give a final FCS concentration of 10%. The cells were incubated until the control cells i.e. those with FCS and no compound, were just confluent (5 days). An MTT assay was performed, and difference in absorbance in analogue treated cells from the control was calculated using the formula: test/control*100−100. Results
# The effect of test compounds on human umbilical vein smooth muscle cells (HUVSMC), was examined. Cells, tissue explants from a neonate (HRI—passage 2), were seeded into 96 well plates at 1×10^3 cells per well, and allowed to attach for 24 hours. They were then washed twice and incubated in medium without foetal calf serum (FCS) for 24-48 hours to serum-starve them. Test compounds were prepared in medium without FCS and added to the plates and incubated for one hour. Medium with FCS was added to give a final concentration of 10% and the plates incubated for 4-5 days until the controls were just confluent.
smiles,measurement,setting,value
"CCCN1COc2c(cc3c(c2C)OCC(c2ccc(OC)c(OC)c2)=C3)C1 [Compound 14, 7-(3,4-Dimethoxyphenyl)-10-methyl-3-propyl-2,3,4,8-tetrahydrochromeno[6,7-e][1,3]oxazine]",mean change of LPS-induced PGE2 synthesis,[1],greatest inhibition
same,mean change of LPS-induced TXB2 synthesis,[2],greatest inhibition
same,mean change of LPS-induced NO synthesis,[3],greatest inhibition
"COc1ccc(C2=Cc3cc4c(c(C)c3OC2)OCN(Cc2ccccc2)C4)cc1OC [Compound 13, 3-Benzyl-7-(3,4-dimethoxyphenyl)-10-methyl-2,3,4,8-tetrahydrochromeno[6,7-e][1,3]oxazine]",EC50,[4],41 µM
"COc1ccc(C2=Cc3cc4c(cc3OC2)OCN(c2ccccc2)C4)cc1OC [Compound 12, 7-(3,4-Dimethoxyphenyl)-3-phenyl-2,3,4,8-tetrahydrochromeno[6,7-e][1,3]oxazine]",mean change of LPS-induced PGE2 synthesis,[1],greatest inhibition
"Oc1ccc(C2=Cc3cc4c(cc3OC2)OCN(Cc2ccc(Cl)cc2)C4)cc1 [Compound 15, 4-(3-(4-Chlorobenzyl)-2,3,4,8-tetrahydrochromeno[6,7-e][1,3]oxazin-7-yl)phenol]",EC50,[4],22.5 µM
same,"activity against CP70, HPAC and MM200 cell lines","cancer cell lines; CP70, HPAC and MM200",active
same,IC50,CP70,4.41 µM
same,IC50,MM200,9.4 ± 1.5 µM
same,IC50,HPAC,7.89 µM
"COc1ccc(CN2COc3cc4c(cc3C2)C=C(c2ccc(OC)c(OC)c2)CO4)cc1 [Compound 9, 7-(3,4-Dimethoxyphenyl)-3-(4-methoxybenzyl)-2,3,4,8-tetrahydrochromeno[6,7-e][1,3]oxazine]",EC50,[4],36 µM
same,toxicity against cancer cells,cancer cell lines; where tested,moderate toxicity
same,mean change of LPS-induced PGE2 synthesis,[1],greatest inhibition
same,mean change of LPS-induced TXB2 synthesis,[2],greatest inhibition
"COCCCN1COc2cc3c(cc2C1)C=C(c1ccc(O)cc1)CO3 [Compound 16, 4-(3-(3-Methoxypropyl)-2,3,4,8-tetrahydrochromeno[6,7-e][1,3]oxazin-7-yl)phenol]",EC50,[4],22 µM
same,IC50,cancer cell lines; read-out: most potent activity against the respective cell lines tested,1 to 5 µM
same,IC50,MM200,1.8 µM
same,IC50,HPAC,3.88 µM
"O=[N+]([O-])c1cccc(N2COc3cc4c(cc3C2)C=C(c2ccc(O)cc2)CO4)c1 [Compound 23, 4-(3-(3-Nitrophenyl)-2,3,4,8-tetrahydrochromeno[6,7-e][1,3]oxazin-7-yl)phenol]",EC50,[4],27 µM
same,"PPARγ activation, increase in beta-lactamase activity over media only control",[5],PPARγ agonist activity
same,mean change of LPS-induced PGE2 synthesis,[1],greatest inhibition
same,mean change of LPS-induced TXB2 synthesis,[2],greatest inhibition
same,mean change of LPS-induced NO synthesis,[3],greatest inhibition
"N#Cc1ccc(N2COc3cc4c(cc3C2)C=C(c2cccc(O)c2)CO4)cc1 [Compound 21, 4-(7-(3-Hydroxyphenyl)chromeno[6,7-e][1,3]oxazin-3(2H,4H,8H)-yl)benzonitrile]",EC50,[4],44 µM
"Cc1c2c(cc3c1OCN(c1ccc(O)cc1)C3)C=C(c1cccc(O)c1)CO2 [Compound 26, 3,4′-(10-Methyl-chromeno[6,7-e][1,3]oxazine-3,7(2H,4H,8H)-diyl)diphenol]",EC50,[4],26 µM
"CC(C)(C)c1ccc(CN2COc3cc4c(cc3C2)C=C(c2ccc(O)cc2)CO4)cc1 [Compound 29, 4-(3-(4-tert-Butylbenzyl)-2,3,4,8-tetrahydrochromeno[6,7-e][1,3]oxazin-7-yl)phenol]","PPARγ activation, increase in beta-lactamase activity over media only control",[5],PPARγ agonist activity
"Cc1ccc(N2COc3cc4c(cc3C2)C=C(c2ccc(O)cc2)CO4)cc1 [Compound 18, 4-(3-p-Tolyl-2,3,4,8-tetrahydrochromeno[6,7-e][1,3]oxazin-7-yl)phenol]",EC50,[4],29 µM
same,effect on proliferation of HUVSMCs induced by FCS,[6],significantly inhibited the proliferation
same,"PPARγ activation, increase in beta-lactamase activity over media only control",[5],PPARγ agonist activity
"Oc1ccc(C2=Cc3cc4c(cc3OC2)OCN(c2ccc(O)cc2)C4)cc1 [Compound 8, 4,4′-(Chromeno[6,7-e][1,3]oxazine-3,7 (2H,4H,8H)-diyl)diphenol]",EC50,[4],16 µM
same,effect on proliferation of HUVSMCs induced by FCS,[6],significantly inhibited the proliferation
same,mean change of LPS-induced TXB2 synthesis,[2],greatest inhibition
"CCCN1COc2c(cc3c(c2Br)OCC(c2ccc(O)cc2)=C3)C1 [Compound 25, 4-(10-Bromo-3-propyl-2,3,4,8-tetrahydrochromeno[6,7-e][1,3]oxazin-7-yl)phenol]",EC50,[4],23 µM
"Cc1ccc(N2COc3cc4c(cc3C2)C=C(c2cccc(O)c2)CO4)cc1 [Compound 20, 3-(3-p-Tolyl-2,3,4,8-tetrahydrochromeno[6,7-e][1,3]oxazin-7-yl)phenol]",EC50,[4],38 µM
same,effect on proliferation of HUVSMCs induced by FCS,[6],significantly inhibited the proliferation
same,"PPARγ activation, increase in beta-lactamase activity over media only control",[5],PPARγ agonist activity
"COc1ccc(C2=Cc3cc4c(c(C)c3OC2)OCN(c2ccc(C)cc2)C4)cc1OC [Compound 19, 7-(3,4-Dimethoxyphenyl)-10-methyl-3-p-tolyl-2,3,4,8-tetrahydrochromeno[6,7-e][1,3]oxazine]",EC50,[4],41 µM
same,effect on proliferation of HUVSMCs induced by FCS,[6],significantly inhibited the proliferation
same,mean change of LPS-induced NO synthesis,[3],greatest inhibition
